Patent publication US20210100897A1, “METHODS FOR THE STIMULATION OF DENDRITIC CELL (DC) PRECURSOR POPULATION "PRE-DC" AND THEIR USES THEREOF” (AGENCY FOR SCIENCE, TECHNOLOGY AND RESEARCH, priority 2017, published 2021)

Legend:
Assay type in all cases: cell-based, human
pDC [1] = assay: Intracellular cytokine detection following stimulation with TLR ligands (PBMC, flow cytometry), pDC; conditions: PBMC stimulated 6 h with TLR agonist
Protocol: All antibodies used for fluorescence-activated cell sorting (FACS) and flow cytometry were mouse anti-human monoclonal antibodies (mAbs), except for chicken anti-human CADM1 IgY primary mAb. Briefly, 5×10^6 cells/tube were washed and incubated with Live/Dead blue dye (Invitrogen) for 30 min at 4° C. in phosphate buffered saline (PBS) and then incubated in 5% heat-inactivated fetal calf serum (FCS) for 15 min at 4° C. (Sigma Aldrich). The appropriate antibodies diluted in PBS with 2% fetal calf serum (FCS) and 2 mM EDTA were added to the cells and incubated for 30 min at 4° C., and then washed and detected with the secondary reagents. For intra-cytoplasmic or intra-nuclear labeling or staining, cells were fixed and permeabilized with BD Cytofix/Cytoperm (BD Biosciences) or with eBioscience FoxP3/Transcription Factor Staining Buffer Set (eBioscience/Affimetrix), respectively according to the manufacturer's instructions. Flow cytometry was performed using a BD LSRII or a BD FACSFortessa (BD Biosciences) and the data analyzed using BD FACSDiva 6.0 (BD Biosciences) or FlowJo v.10 (Tree Star Inc.). For isolation of precursor dendritic cells (pre-DC), PBMC were first depleted of T cells, monocytes and B cells with anti-CD3, anti-CD14 and anti-CD20 microbeads (Miltenyi Biotec) using an AutoMACS Pro Separator (Miltenyi Biotec) according to the manufacturer's instructions. […]

pre-DC = assay: Luminex Drop Array assay on sorted and stimulated pre-DC, culture supernatants; conditions: TLR7/8 or TLR9 stimulation; FIG. 2G and FIG. 13
Protocol: (§1) A total of 2,000 cells/well of sorted pre-DC and DC subsets were seeded in V-bottom 96 well plates and then incubated for 18 h in 50 μL complete RPMI-1640 Glutmax media (Life Technologies) supplemented with 10% FBS and 1% penicillin/streptomycin, and stimulated with either LPS, LPS+IFNγ, Flagellin, polyI:C, Imidazoquinoline or CpG oligodeoxynucleotides (ODN) 2216. Cells were then pelleted and 30 μL supernatant was collected. A Luminex® Drop Array™ was performed using 5 μL of the supernatant. Human G-CSF, GM-CSF, IFN-α2, IL-10, IL-12p40, IL-12p70, IL-15, IL-1RA, IL-1a, IL-1b, IL-6, IL-7, IL-8, MIP-1b, TNF-α, TNF-β were tested by multiplexing (EMD Millipore) with DropArray-bead plates (Curiox) according to the manufacturer's instructions. Acquisition was performed using xPONENT 4.0 (Luminex) acquisition software, and data analysis was performed using Bio-Plex Manager 6.1.1 (Bio-Rad).

pDC [2] = assay: Luminex Drop Array assay on sorted and stimulated pDC, culture supernatants; conditions: TLR7/8 or TLR9 stimulation; FIG. 2G and FIG. 13
Protocol: as §1

## CCOCc1nc2c([nH]1)c(N)nc1ccccc12 [CL097]
pDC [1]
  IFN-α production by pDC: robust
pre-DC
  IL-12p40 secretion by pre-DC: readily secreted
pDC [2]
  IFNα secretion by pure pDC cultures: abundant secretion
  IL-12p40 secretion by pure pDC cultures: but not IL-12p40
